Where a name gives a salt, the structure may show the parent alone. Read-outs that look alike come from different tables or passages of the source.
Columns and labels:
1405R3 = assay: High-throughput drug screen, CellTiter-Glo viability, 72 h; type: cell-based, human; parameters: AUC: scale not given here; settings: 1405R3 DSRT analysis; for AUC: area under the dose-response curve; for MIN: lower asymptote of fitted dose-response curve; for EC50: fitted dose-response curve, Min.Conc.tested 1, Max.Conc.tested 10000, CellTiter-Glo, 72 h, read-out: EC50; for SLOPE: slope of fitted dose-response curve
Method: (§1) The cells were seeded and incubated with a gradient of concentrations of drugs for 72 h, after which the cell viability was assessed (Supplementary Fig. 1a). The drug library primarily comprises epigenetic drugs, including HDAC inhibitors, DNA methyltransferase inhibitors, and histone demethylase inhibitors, as well as conventional chemotherapies and kinase inhibitors (Supplementary Fig. 1b and Supplementary Table 1). […] To identify novel therapeutics against CCA, we conducted a high-throughput screen employing PerkinElmer’s integrated robotic Explorer G3 workstations. […] Following dilution to five specified concentrations, drugs were dispensed into 96-well plates in the sequence detailed in Supplementary Fig. 1a. The CCA cell lines were subsequently plated in 384-well plates at a density of 3000 cells per well in a 20 μL total volume. After a 24-h incubation, the compounds were added to the wells and incubated for 72 h. We then quantified cell viability via the CellTiter-Glo luminescent assay according to the manufacturer’s protocol. Signal detection was carried out on a Synergy2 plate reader operated by Gen5 software (BioTek). For data processing, the raw luminescence data were processed through the Breeze pipeline for curve fitting, yielding quality control metrics (e.g., Z-factors) and drug response parameters (AUC and DSS), as adapted from previous work.[54] Drug responses were evaluated on the basis of the drug sensitivity score (DSS), and a cutoff of ≥10 was used to define efficacy. The complete drug library and screening dataset are available in Supplementary Tables 1-3.
(§2) Supplementary Fig. 1. A high-throughput drug screen to identify drugs targeting CCA. a Schematic representation of the drug screening protocol. […] Each drug was tested at five different concentrations (10, 1, 0.1, 0.01, and 0.001 μM), and each treatment was replicated twice. b Classification of drugs used for screening.

783C-6 = assay: as above; type: cell-based, human; parameters: AUC: scale not given here; settings: for DSS: DSS calculated from the dose-response curve; for MIN: MIN of the fitted dose-response curve; for AUC: area under the dose-response curve; for EC50: 72 h, read-out: EC50; for SLOPE: slope of the fitted dose-response curve
Method: as §1, §2

[1] = 783C-6 DSRT analysis, CellTiter-Glo viability, fitted dose-response curve, Min.Conc.tested 1, Max.Conc.tested 10000

Structure (SMILES)	DSS (1405R3)	AUC (1405R3)	MIN (1405R3)	EC50 (1405R3; Homo sapiens)	DSS (783C-6; 783C-6 DSRT analysis)	MIN (783C-6; 783C-6 DSRT analysis)	AUC (783C-6; 783C-6 DSRT analysis)	EC50 (783C-6; Homo sapiens)	EC50 (1405R3)	SLOPE (1405R3)	EC50 (783C-6; [1])	SLOPE (783C-6; 783C-6 DSRT analysis)
C#Cc1cccc(Nc2ncnc3cc(OC)c(OCCCCCCC(=O)NO)cc23)c1 [CUDC-101]	10	85.7	2.9	1.31 µM	8.7	2.2	75.9	1.68 µM				
COc1ccc(-c2nc(N3CCOCC3)c3sc(CN(C)c4ncc(C(=O)NO)cn4)cc3n2)cn1 [CUDC-907]	22.6	188.1	0.8	0.127 µM	21.1	2.9	175.2	0.157 µM				
C=CC(=O)Nc1cc2c(Nc3ccc(F)c(Cl)c3)ncnc2cc1OCCCN1CCOCC1 [Canertinib]	0	33.5	78.5		0	75.6	7.4					
COc1cc2c(Oc3ccc4[nH]c(C)cc4c3F)ncnc2cc1OCCCN1CCCC1 [Cediranib]	5.6	50.5	9.6	2.81 µM	2.4	57.8	23.3	2.85 µM				
N.N.[Cl][Pt][Cl] [Cisplatin]	2	22.7	71.3		2	65.1	20.4		1.65 µM	-1.8	2.63 µM	-2.5
O=C(CCCCCCNC(=O)c1cnc(N(c2ccccc2)c2ccccc2Cl)nc1)NO [Citarinostat]	3.5	32.3	46.8	2.5 µM	3.4	50.9	31.7	2.28 µM				
COc1cc(/C=C/C(=O)CC(=O)/C=C/c2ccc(O)c(OC)c2)ccc1O [Curcumin]	0	1	97.3		0	96.8	2.1					
Cc1sc2c(c1C)C(c1ccc(Cl)cc1)=N[C@@H](CC(=O)NCCCCCCCCNC(=O)COc1cccc3c1C(=O)N(C1CCC(=O)NC1=O)C3=O)c1nnc(C)n1-2 (stereo partly shown) [DBET6]	0.4	8.2	80		6.9	29.1	59.2			-2.5	1.47 µM	-2.5
O=C(/C=C/c1ccc(CN(CCO)CCc2c[nH]c3ccccc23)cc1)NO [Dacinostat]	15.8	132.5	1.4	0.453 µM	11.6	2.5	99	0.965 µM				
CN(C)NC(=O)CCC(=O)O [Daminozide]	0	0.1	99.6		0	97.8	1					
Nc1ncn([C@H]2C[C@H](O)[C@@H](CO)O2)c(=O)n1 [Decitabine]	0	0.1	100		0.5	88.5	19.6					
CCCC(CCC)C(=O)O [Divalproex Sodium]	0	0.1	100		0	96.3	0.4					
CN1CCN(c2ccc3nc(-c4c(N)c5c(F)cccc5[nH]c4=O)[nH]c3c2)CC1 [Dovitinib]	4.2	38.6	29.8	2.87 µM	4.1	35.6	37	2.7 µM				
Cc1cc(Cl)ccc1OCCCC(=O)NO [Droxinostat]	0	1.2	97.1		0	90.5	2.9			-0.7		-1
CCC(CC)n1ccc2c(C(=O)NCc3c(C)cc(C)[nH]c3=O)cc(C#N)cc21 [EI1]	0	0.1	100		0	98.2	0.7			-0.1		-0.8
CC(C)N(CCCNC(=O)Nc1ccc(C(C)(C)C)cc1)C[C@H]1O[C@@H](n2ccc3c(N)ncnc32)[C@H](O)[C@@H]1O [EPZ004777]	0	0.5	98.8		0	97.4	0.7					
O=C(NC[C@H](O)CN1CCc2ccccc2C1)c1cc(NC2COC2)ncn1 [EPZ015666]	0	15.4	90.1		0	85	4.5					
CNCCN(C)Cc1cn[nH]c1-c1ccc(OC2CC(OCCC3CCOCC3)C2)cc1.Cl (stereo not shown) [EPZ020411 2HCl]	0	0.3	97.2		0	96.5	1.7			-2.5		-0.6
Nc1ccccc1NC(=O)c1ccc(CNC(=O)OCc2cccnc2)cc1 [Entinostat]	10	87.7	5.2	1.2 µM	9.1	8.3	78	1.42 µM				
COc1cccc2c1C(=O)c1c(O)c3c(c(O)c1C2=O)C[C@@](O)(C(=O)CO)C[C@@H]3O[C@H]1C[C@H](N)[C@@H](O)[C@H](C)O1 [Epirubicin]	7.1	64.9	27.7	1.31 µM	13.9	33.9	113.1	0.195 µM				
C#Cc1cccc(Nc2ncnc3cc(OCCOC)c(OCCOC)cc23)c1 [Erlotinib HCl]	0	27.3	82.4		0	77	6.9					
COc1cc2c(Oc3ccc(NC(=O)C4(C(=O)Nc5ccc(F)cc5)CC4)cc3F)ccnc2cc1OCCCN1CCOCC1 [Foretinib]	2.9	27.8	51.5	2.71 µM	4.1	32.7	37.2	2.85 µM				
CC[C@H](C)n1cc(C)c2c(C(=O)NCc3c(C)cc(C)[nH]c3=O)cc(-c3ccc(N4CCNCC4)nc3)cc21 [GSK126]	0	22.4	85.6		0	91	2.7			-0.1		-1
CCCc1cc(C)[nH]c(=O)c1CNC(=O)c1cc(-c2ccnc(N3CCN(C)CC3)c2)cc2c1cnn2C(C)C [GSK343]	0	13.6	91.2		0	98.1	2.9					
O=C(CCc1ccc(CN[C@H](C(=O)OC2CCCC2)C2CCCCC2)cn1)NO [GSK3117391]	8.4	74.7	7.4		7.5	4.1	65.5		1.58 µM	-1.9	2.09 µM	-2.5
O=C(O)CCNc1cc(N2CCc3ccccc3CC2)nc(-c2ccccn2)n1 [GSK J1]	0	0.1	100		0	99.9	0			-0.1		-1.3
CCOC(=O)CCNc1cc(N2CCc3ccccc3CC2)nc(-c2ccccn2)n1 [GSK J4 HCl]	2.7	26.1	65	1.8 µM	0	70.3	8.9					

Source: article PMC12518634, “The noncanonical function of liver-type phosphofructokinase potentiates the efficacy of HDAC inhibitors in cancer” (Signal Transduction and Targeted Therapy, 2025)
